{"source": "patent US20240041922A1", "about": "“METHODS AND COMPOSITIONS” (Monash University, priority 2020, published 2024)", "key": {"rectus femoris muscle": {"test_system": "rectus femoris muscle", "conditions": "for muscle architecture / regenerated muscle area: delivered in fibrin hydrogel, 10 days post treatment", "method": "Injury: male C57BL/6J mice aged between 10-12 weeks were anesthetised and shaved on the hind left leg. A unilateral incision measuring approximately 1 cm was made exposing the underlying fascia. The left hind limb was extended and exteriorised via the incision site by retracting the surrounding tissue. A 3×4 mm full thickness segment of the rectus femoris muscle was removed. Directly after, the injury site was filled with fibrin hydrogel with or without 200 ng or 500 ng of hrNAMPT(1) (hydrogel components; 40 μl, 8 mg/ml human fibrinogen (FIB3, Enzyme Research Laboratories), 4 U/ml bovine thrombin (T4648, Sigma), 5 mM CaCl2, 17 μg/ml of aprotinin (ab146286, Abcam)) which polymerized in the defect. Then, the soft tissue was closed with stitches.\nHistology: 10 days after treatment, animals were sacrificed and the wounds were harvested for histological analysis. The defect site and associated proximal and distal segment of the quadriceps muscle (including the rectus femoris, vastus medialis and vastus lateralis) were excised and embedded. Histological analysis was performed on serial paraffin sections (4 μm sections collected passing the central portion of the wound). Multiple sections were stained with Masson's Trichrome (to detect collagen deposition) and the extent of fibrosis (represented by a blue stain) was measured by histomorphometric analysis using ImageJ software (version 1.51h, National Institutes of Health, USA). To maintain uniformity between samples, the length of the vastus medialis taken at multiple depths ranging from 1.0 mm-3.0 mm serves as a reference between tissue sections to determine the depth of sectioning. For fibrotic quantification, average muscle fibrosis area at each depth was scored and normalised with the area of the rectus femoris. Total area of muscle is determined by calculating the average area of rectus femoris at each depth.\nImmune cell profiling and PAX7^+ cell quantification with flow cytometry: 4, 6 or 8 days after treatment with either 0.5 μg of hrNAMPT(1) delivered by fibrin hydrogel or control fibrin hydrogel only, mice were euthanised via CO2 asphyxiation. The defect site and associated proximal and distal segment of the quadricep muscles were isolated and placed into 890 μl of complete RPMI (with 10% FBS and 2 mM Glutamax, Life Technologies). The tissue was minced with surgical scissors and 100 μl of 10 mg/ml Collagenase II (Sigma-Aldrich) and 10 μl of 10 mg/ml DNAse I (Biolabs), while 100 μl of dispase II (10 mg/ml) was added into the digestion for PAX7 acquisition. The mixture was vortexed and incubated at 37° C. for 45 min. The collagenase was then inactivated with 500 μl ice-cold PBS, 5% FBS, 5 mM EDTA. The mixture was strained subsequently through 70 μm and 40 μm filters. The cell suspension was further diluted with 1 ml complete RPMI and centrifuged for 10 min at 300× g. The supernatant was discarded and the pellet was resuspended in 250 μl complete RPMI and aliquoted into wells of a 96-well U bottom plate for antibody staining. The cell solutions were centrifuged, supernatant discarded, and washed with PBS. The cell viability stain used was 100 μl of Zombie Aqua (Biolegend) Live-Dead dye diluted in PBS (1:400 dilution) and incubated for 30 min at 4° C. The cells were then blocked with FcX (anti-CD16/32 antibodies, Biolegend, 1 μg/ml) flow cytometry buffer (PBS, 5% FBS). The cells were kept for 20 min at 4° C., washed with flow cytometry buffer and centrifuged. […]"}, "[1]": {"test_system": "wound-resident muscle stem cells", "assay": "Larval zebrafish needle stab muscle injury, wound site proliferation (EdU)", "format": "in vivo", "method": "4dpf larvae were anaesthetized in 0.01% tricaine (MS-222) (Sigma-Aldrich) in Ringer's solution. Mechanical injures were targeted either to the dorsal or ventral myotome above the cloaca when the larvae is oriented dorsal to the top, anterior to the left. Needle-stick injury was carried out as previously described (Gurevich, D. B. el al. Asymmetric division of clonal muscle stem cells co-ordinate muscle regeneration in vivo. Science 353 6295 aad9969 (2016)). Briefly, the myotome was subjected to a single 30-gauge needle puncture that generates an extensive injury with many damaged muscle fibres. For laser-induced injury, anaesthetised larvae were mounted in a thin layer of 1% low-melt agarose in Ringer's solution. Injuries were carried out using a UV-nitrogen laser pulsed through a coumarin 440 nm dye cell coupled to a Zeiss Axioplan microscope (MicroPoint Laser System, Andor Technology). On average a laser injury required pulses for 5-10 sec from laser beams focused through a 40× water immersion objective. For time-lapse analysis of the immediate response to injury, muscle fibre ablations were achieved using a SIM scanner (Olympus) at 790 nm and 200 msec dwell time at 100% laser power on an Olympus FVMPE-RS upright multi-photon microscope equipped with a 25×/1.05 water immersion objective. Injury-responding macrophages were tracked using the manual tracking plugin in Fiji.\nCell ablation was carried out as previously described (Pisharath, H. & Parsons, M. J. in Zebrafish 133-143 (Springer, 2009)) with minor modifications. Larvae at the appropriate stage were incubated in 5-10 mM metronidazole (Mtz) (Sigma-Aldrich) in Ringer's solution and daily refreshed until experimental end point. Drug treatments were carried out by incubating 4 dpf needle stick injured larvae in 5 and 10 μM cenicriviroc (CVC) (Med Chem Express) and 5 and 10 μM maraviroc (MVC) (Med Chem Express) in Ringer's solution immediately post injury and refreshed daily.\nThe effect of drug treatment on laser ablation muscle injury was assayed by treating larvae with 5 μM CVC for 2 h prior to injury and with larvae being maintained in the drug until experimental end point. […] Chemokine supplementation experiments were carried out in plasticware coated with 0.1% bovine serum albumin (BSA) overnight (rinsed in Ringer's solution prior to use) to minimise protein adsorption. Larvae were treated with 57 nM recombinant human visfatin (hrNAMPT(1)) (PeproTech), 57 nM recombinant murine CCL8/MCP-2 (mrCCL8) (PeproTech) and combinations with Mtz and CVC.\nLarvae: Labelling and detection was carried out as previously described (Nguyen, P. D. et al. Muscle stem cells undergo extensive clonal drift during tissue growth via Meox1-mediated induction of G2 cell-cycle arrest. Cell Stem Cell 21, 107-119. e106 (2017))^55 with minor alteration. 6 dpf/2 dpi larvae were pulsed with 2.5 nM EdU (Thermo Fisher) for 1h and chased for a further 1.5 h prior to fixation. Cell culture: Cells were incubated for 1 h in media supplemented with 10 μM EdU. Following Edu pulse, C2C12 cells were fixed immediately, while primary mouse myoblast co-cultures were rinsed in PBS, replaced with media and incubated for a further 2 h following which the cells were fixed. Cells were processed using the Click-iT™ EdU Alexa Fluro™ 647 imaging Kit (Thermo Fisher) following the manufacturer's protocol."}, "PAX7+ satellite cells": {"test_system": "PAX7+ satellite cells", "assay": "Primary mouse myoblast mono- and co-cultures, PAX7+ satellite cell proliferation (EdU)", "format": "cell-based", "conditions": "for satellite cell proliferation on supplementation: myoblast monoculture (MB) and MB+3T3 co-culture, 24 h", "method": "Larvae: Labelling and detection was carried out as previously described (Nguyen, P. D. et al. Muscle stem cells undergo extensive clonal drift during tissue growth via Meox1-mediated induction of G2 cell-cycle arrest. […] Cell culture: Cells were incubated for 1 h in media supplemented with 10 μM EdU. […] Cells were processed using the Click-iTTM EdU Alexa FluroTM 647 imaging Kit (Thermo Fisher) following the manufacturer's protocol. For isolation of primary mouse myoblasts, limb skeletal muscle from E17.5 C57/BL6J mice were minced and digested in 0.125% Trypsin at 37° C. for 20 min. […] Myoblasts were again depleted for fibroblasts prior to co-culturing on gelatin-coated 48 well plates in DMEM+20% FBS+10% L929-conditioned medium. 100,000 myoblasts were plated with either 7,500 MafB/c-Maf deficient (Maf-DKO) macrophages (Aziz, A., Soucie, E., Sarrazin, […]. MafB/c-Maf deficiency enables self-renewal of differentiated functional macrophages. […] For drug treatments, the media were supplemented with appropriate doses and cultured for 24 h."}, "C2C12 myoblasts": {"test_system": "C2C12 myoblasts", "assay": "C2C12 myoblast proliferation (EdU incorporation)", "format": "cell-based, mouse", "method": "Larvae: Labelling and detection was carried out as previously described (Nguyen, P. D. et al. Muscle stem cells undergo extensive clonal drift during tissue growth via Meox1-mediated induction of G2 cell-cycle arrest. […] Cell culture: Cells were incubated for 1 h in media supplemented with 10 μM EdU. […] Cells were processed using the Click-iTTM EdU Alexa FluroTM 647 imaging Kit (Thermo Fisher) following the manufacturer's protocol. The mouse muscle cell line […]. Serial passaging and differentiation of myogenic cells isolated from dystrophic mouse muscle. Nature 270, 725 (1977) were cultured in growth media (Dulbecco's Modified Eagle Medium (4.5 g/l D-Glucose, No L Glutamine, No Sodium Pyruvate (Gibco))+20% Fetal Bovine Solution-One Shot (Gibco)+1% Glut Max 100x (Gibco)). Cells were maintained at 37° C., 5% CO2. Cells at 70% confluence, passage 8 were extracted from T75 flasks with 0.025% Tryspin EDTA (Gibco), neutralised in growth media, spun at 180×g for 5 min to pellet cells. The cells were then resuspended in 10 ml of fresh growth media. 500 μl of cells were plated on a 8-well on cover glass II (Sarstedt) chamber slide at a density of 1×10^3 cells/ml. Cells were left 4 h at 37° C. to re-attach. For drug treatments, the media were supplemented with appropriate doses and cultured for 6 h."}, "[2]": {"conditions": "single dose 0.5 μg in fibrin hydrogel, vs fibrin only"}}, "note": "Entries after “also recorded” stand apart in the source; their conditions may differ. Like-named read-outs stand apart in the source and are kept apart here.", "data": [{"compound": "Nicotinamide phosphoribosyltransferase [NAMPT]", "values": [{"measurement": "centrally nucleated muscle fibres", "setting": "rectus femoris muscle; 6 days post treatment", "value": "significant increase the number of centrally nucleated de novo muscle fibres"}, {"measurement": "muscle architecture / regenerated muscle area", "setting": "rectus femoris muscle", "value": "significantly increased the regenerated muscle area"}, {"measurement": "muscle architecture / regenerated muscle area", "setting": "rectus femoris muscle; listed as hrNAMPT", "value": "able to fully restore muscle architecture"}, {"measurement": "decrease in average fibrotic area", "setting": "rectus femoris muscle; [2]", "value": "34.76±9.32", "unit": "%"}, {"measurement": "increase in average muscle area", "setting": "rectus femoris muscle; [2]", "value": "3.276±0.4926", "unit": "mm^2"}, {"measurement": "wound site proliferation in macrophage-ablated larvae", "setting": "[1]; 5 mM Mtz added at 4 dpf/0 dpi", "value": "rescues the proliferation deficit generated by ablating macrophages; also recorded: rescues the proliferative deficit that occurs upon macrophage ablation; also recorded: functioned to rescue wound site proliferation in macrophage-ablated larvae"}, {"measurement": "wound site proliferation, NAMPT together with CVC", "setting": "[1]; Ccr5 inhibited by CVC", "value": "failed to rescue the proliferation defect; also recorded: resistant to NAMPT mediated rescue; also recorded: failed to rescue the proliferation deficit when supplemented in conjunction with CVC"}, {"measurement": "increase in wound site proliferation above control response in macrophage-ablated larvae", "setting": "[1]; macrophages ablated with Mtz", "value": "10.96±3.55", "unit": "%"}, {"measurement": "wound site muscle stem cell proliferation", "setting": "[1]; needle stab injury, agent alone", "value": "specifically enhanced wound-resident muscle stem cell proliferation; also recorded: increases wound site proliferation in control settings"}, {"measurement": "increase in muscle stem cell proliferation within the wound site vs control", "setting": "[1]; needle stab injury, supplementation", "value": "30.70±4.26", "unit": "%"}, {"measurement": "satellite cell proliferation on supplementation in presence of macrophages", "setting": "PAX7+ satellite cells; MB+macrophage co-culture", "value": "did not increase satellite cell proliferation in the presence of macrophages"}, {"measurement": "satellite cell proliferation on supplementation", "setting": "PAX7+ satellite cells", "value": "enhanced proliferation; also recorded: stimulates proliferation of PAX7^+ satellite cells"}, {"measurement": "satellite cell proliferation on supplementation", "setting": "PAX7+ satellite cells; listed as hrNAMPT", "value": "able to increase the proliferation of satellite cells in MB and MB+3T3 culture conditions"}]}, {"compound": "O=C(NCC(=O)N1CC[C@H](N[C@H]2CC[C@@](O)(c3ccc(-c4ncccn4)cn3)CC2)C1)c1cccc(C(F)(F)F)c1", "note": "[PF-4136309, reference compound]", "values": [{"measurement": "effect on macrophage-stimulated satellite cell proliferation", "setting": "PAX7+ satellite cells; MB+macrophage co-culture, 100 nM inhibitor", "value": "had no negative effect"}, {"measurement": "effect on NAMPT-stimulated satellite cell proliferation", "setting": "PAX7+ satellite cells; with hrNAMPT, 100 nM inhibitor", "value": "maintained"}, {"measurement": "effect on NAMPT-induced myoblast proliferation", "setting": "C2C12 myoblasts; co-administration with NAMPT, 6 h", "value": "does not hinder NAMPT's stimulatory effect on myoblast proliferation"}]}, {"compound": "mrCCL2: recombinant murine CCL2/MCP-1 (PeproTech), CCR2-specific ligand", "values": [{"measurement": "myoblast proliferation, factor added alone", "setting": "C2C12 myoblasts; 6 h in growth media", "value": "failed to increase proliferative rates beyond that of the control"}]}]}
